Patent publication US9855277B2, “Use of 5H-dibenz/b,f/azepine-5-carboxamide derivatives for treating fibromyalgia” (BIAL—PORTELA & CA, S.A., priority 2009, dated 2018)

Legend:
[1] = system: patients with partial epilepsy; assay: MADRS, open label extension of phase 3 study, Trial 1; type: in vivo, human
Description: During an open label extension of a phase 3 study with ESL, the effect on depressive symptoms in patients taking at least one other anti-epileptic drug was assessed using the Montgomery Åsberg Depression Rating Scale (MADRS) at the end of treatment (after one year or after early discontinuation) and results compared with those at baseline. Patients were treated with ESL dosages in the range of 400-1500 mg, the majority being treated once daily with 800 mg ESL.

[2] = system: dorsal horn neurones of CCI mice; assay: Spontaneous activity of dorsal horn neurones in CCI mice (extracellular recording); type: in vivo; details: ESL 100 mg/kg i.p.; for spontaneous activity of dorsal horn neurones, firing rate: 5 preparations
Description: Adult male BL CB F1 mice, weighing 25-30 g at the time of surgery and 26-38 g at the time of electrophysiological experiments, were used. The baseline paw withdrawal threshold (PWT) was examined using a series of graduated von Frey hairs (see below) on 3 consecutive days before surgery and re-assessed on the 7th and on the 14th days after surgery, before electrophysiological recording. The animals were killed by an overdose of pentobarbitone on completion of the study. The chronic constriction injury (CCI) model was prepared following the standard protocols described previously (Bennett and Xie, 1988). Mice were anaesthetised and the lateral side of the left thigh was shaved and sterilized with 75% ethanol. A small incision of approximately 0.5 cm was made parallel to the femur. The muscle was carefully separated to expose the sciatic nerve. Three loose ligatures were placed on the sciatic nerve with 5-0 suture silk thread at approximately 1 mm intervals. The wound was closed in layers with suture silk 4-0 and the animals were placed in a recovery chamber with the temperature controlled and set at 30° C. A dose of amoxicillin (0.02 mL, 3 mg) was routinely injected i.p. after surgery to prevent infection. The animals were returned to their home cages after complete recovery of consciousness and freedom of movement. For the first 2 days after surgery, the animals were closely monitored at least twice daily and subsequently, at least once daily until compound testing. The baseline PWT was tested for 3 consecutive days before surgery and re-assessed on the 7th and 14th days after surgery to monitor the development of mechanical allodynia. Only those mice showing significant mechanical allodynia (PWT≦0.2 g) were selected for subsequent electrophysiological experiments. After behavioural validation, the mice were re-anaesthetised, body temperature was monitored and controlled within a physiological range via a thermo-blanket system, and the electrocardiogram (ECG) was routinely monitored through a pair of stainless steel needles inserted into the left fore-paw and right hind-paw. A laminectomy was carried out to expose the L2-L6 segments of the spinal cord. In some experiments, spinalisation at the C2-C3 level or section of the L4-L6 dorsal roots of the left side at a site near the root entry zone to the spinal cord, was performed. A protective pool was formed and filled with warm mineral oil to cover the spinal cord and the sectioned roots. Extracellular unitary recordings of spontaneous activity from the spinal dorsal horn neurones were achieved by using a carbon microelectrode driven by an electrode manipulator. The electrical signals were recorded through a CED micro-1401 interface to a PC for later off-line analysis. Recording from a dorsal horn neurone displaying spontaneous electrical discharge was undertaken for a period of at least 10 min for control and 40 min after either vehicle or ESL administration. The suspension was prepared with a vehicle containing 30% DMSO in 0.9% sodium chloride to a dose concentration of 50 mg/mL. The vehicle and ESL were injected intraperitoneally at a volume of 2 mL/kg through a needle connected with a 1 mL syringe placed prior to the experiment. Each animal received only one treatment of either vehicle or ESL (100 mg/kg). Spontaneous activity was counted as firing rate per minute. An average firing rate over 5 min periods, recorded consecutively immediately prior to vehicle injection or ESL was used as control (and standardized as 100%). The average firing rate over a 5 min period recorded 30-35 min after vehicle or ESL injection was used to quantify firing rate following treatment and compared with the control level. Due to the high level of variation in frequency of spontaneous ectopic discharge from preparation to preparation; all data were standardized relative to control. All data were expressed as mean±SEM. A paired Student's t-test (two-way) was used to compare different time points in the same group. […]

Mice (NMRI) = assay: Formalin paw test; type: in vivo; details: 300 mg/kg p.o.
Description: The method, which detects analgesic activity, follows that described by Wheeler-Aceto et al (see […]-ACETO, H. & A., C. (1991), “Standardization of the rat paw formalin test for the evaluation of analgesics”, Psychopharmacology, 104, 35-44). Mice (NMRI) were given an intraplantar injection of 5% formalin (25 μl) into the posterior left paw. […] The time spent licking was counted for 15 minutes, beginning 15 minutes after injection of formalin. 10 mice were studied per group. The test was performed blind. ESL and carbamazepine (CBZ) were tested at the doses of 10, 30, 100 and 300 mg/kg p.o., and oxcarbazepine (OXC) and R-Lic were tested at the doses of 100 and 300 mg/kg p.o., administered 60 minutes before the test (i.e. 45 minutes before formalin), and compared with a vehicle control group in each experiment. Morphine (64 mg/kg p.o.), administered under the same experimental conditions, was used as reference substance.

[3] = system: mice with chronic constriction nerve injury (CCI); assay: Paw withdrawal threshold (von Frey filaments) in CCI mice; type: in vivo
Description: The materials used were (as also indicated in FIGS. 1 and 2): • Vehicle: 0.5% hydroxy-propyl-methyl-cellulose (HPMC) in water, 5 ml/kg, p.o.; • 50 mg/kg, 100 mg/kg, 150 mg/kg and 200 mg/kg: ESL at 50, 100, 150 and 200 mg/kg, p.o.; • GP 100 mg/kg: gabapentin 100 mg/kg, p.o.
The potential analgesic effects of orally dosed ESL was investigated at doses of 50, 100, 150 and 200 mg/kg, on the paw withdrawal threshold (PWT) and these effects compared with those of the dose vehicle and gabapentin, the latter at 100 mg/kg, in a mouse model of chronic constriction nerve injury (CCI).
Each animal received a single oral dose of either ESL (50, 100, 150, or 200 mg/kg), or gabapentin (100 mg/kg in saline) or vehicle (5 ml/kg). Behavioural testing was then performed twice, at approximately 60 and 120 minutes post-dose, to investigate the effect of treatments.

CC(=O)O[C@H]1Cc2ccccc2N(C(N)=O)c2ccccc21 [ESL, S-(−)-10-acetoxy-10,11-dihydro-5H-dibenz/b,f/azepine-5-carboxamide]
MADRS total score at end of treatment ([1]; ITT population (166 patients), baseline 10.5, ESL 400-1500 mg, mostly 800 mg once daily, one year or early discontinuation, p<0.05): 7.8 | depressive symptoms (MADRS), change from baseline ([1]; long-term open-label adjunctive therapy, partial epilepsy): Statistically and clinically significant improvement from baseline | spontaneous activity, % of control ([2]; dorsal root (L4-L6) sectioned CCI mice, 30-35 min, P<0.01 vs vehicle): 29.5±13.3 % of control | spontaneous activity of dorsal horn neurones, average firing rate ([2]; dorsal root (L4-L6) sectioned CCI mice, 30-35 min, control 378.1±85.4, 8 preparations): 97.5±39.0 imps/min | spontaneous activity, % of control level ([2]; intact CCI mice, 30-35 min, P<0.01 vs control): 26.3±10.1 % of control | spontaneous activity of dorsal horn neurones, firing rate ([2]; intact CCI mice, 30-35 min after injection, control 780.7±462.5): 113.6±43.9 imps/min | spontaneous activity, % of control levels ([2]; spinalised (C2-C3) CCI mice, 30-35 min, P<0.001): 14.8±6.8 % of control | spontaneous activity of dorsal horn neurones, firing rate ([2]; spinalised (C2-C3) CCI mice, 30-35 min, control 504.5±286.1, P>0.05): 31.2±12.7 imps/min | licking in the formalin test at 300 mg/kg (Mice (NMRI)): abolished licking | PWT in the contralateral limbs vs vehicle group ([3]; 50 mg/kg group on 14th to 16th day, P<0.05): significantly higher | potency and efficacy compared with reference compound ([3]; CCI mice, PWT): potency and efficacy similar to the reference compound, gabapentin | PWT in the ipsilateral hindpaw ([3]; ESL 50, 100, 150, 200 mg/kg p.o., single dose, tested about 60 and 120 min post-dose): dose-dependently increased the PWT | PWT in the contralateral side ([3]; ESL 50-200 mg/kg p.o., vs vehicle): did not significantly affect the PWT | duration of the effect on PWT after dosing ([3]; ESL p.o., ipsilateral hindpaw): more than 2 hours
